From patent US5021421A, “2-(1-Piperazinyl)-4-phenylcycloalkanopyridine derivatives, processes for the production thereof, and pharmaceutical composition containing the same” (Dainippon Pharmaceutical Co., Ltd., priority 1989, dated 1991)
Where a name gives a salt, the structure may show the parent alone. Read-outs that look alike come from different tables or passages of the source.

Key:
[1] = system: apomorphine-induced vomiting; test: Antagonistic effect on apomorphine-induced vomiting; assay type: in vivo, dogs (Beagle); settings: Canis lupus familiaris, sc, apomorphine 0.3 mg/kg s.c. 2 h after compound, read-out: Inhibitory ratio (apomorphine-induced vomiting)
Protocol: A group of 3-4 dogs (Beagle, 8-15 kg) was used for examining effects on the test compounds on apomorphine-induced vomiting, a known test for evaluating neuroleptic drugs.
Each dog was given a subcutaneous injection of apomorphine hydrochloride (0.3 mg/kg) two hours after the treatment of the test compounds. Then, the frequency of oral vomiting was counted for one hour. The mean counts of the compound-treated group were compared with those of the corresponding control (non-dosed) group, and the percent inhibition was calculated.

[2] = system: brain monoamine metabolites; test: Increasing effect on concentration of brain monoamine metabolites; assay type: in vivo, mice (Std-ddy strain); settings: Mus musculus, 2 h, non-dosed=100
Protocol: A group of 5 male mice (Std-ddy strain, 25-30 g) was used for examining effect of the test compounds on concentration of brain monoamine metabolites.
Mice were killed by decapitation 2 hours after treatment with the test compounds. Brains were quickly taken out, homogenized in 1N formic acid-acetone solution, and centrifuged in a refrigerated ultracentrifuge. The supernatant was evaporated by blowing with N2 gas. Then, the residue was again resolved in 0.01 N acetic acid, and served for determining concentration of dopamine metabolites, 3,4-dihydroxyphenylacetic acid (DOPAC) and homovanillic acid (HVA), a norepinephrine metabolite, 3-methyl-4-hydroxyphenylethylene glycol (MOPEG), and a serotonin metabolite, 5-hydroxyindole-3-acetic acid (5-HIAA) concentrations by HPLC with electrochemical detection. The effect of the test compounds on concentration of each monoamine metabolite is shown as % of control (level of non-dosed animals=100) in Table 4.

[3] = read-out: 5-HIAA concentration, % of control
[4] = read-out: DOPAC concentration, % of control
[5] = read-out: HVA concentration, % of control
[6] = read-out: MOPEG concentration, % of control

CCN1CCN(c2cc(-c3ccc(F)cc3)c3c(n2)CCCCCCC3)CC1 [Example 56]
inhibition in vivo at 0.5 mg/kg ([1]; dose 0.5 mg/kg): 85%
response vs control in vivo at 10 mg/kg [2, 3]: 110%
response vs control in vivo at 10 mg/kg [2, 4]: 302%
response vs control in vivo at 10 mg/kg [2, 5]: 249%
response vs control in vivo at 10 mg/kg [2, 6]: 106%

CCN1CCN(c2cc(-c3ccc(F)cc3)c3c(n2)CCC(C)C3)CC1 (centres unmarked) [Example 59]
response vs control in vivo at 2 mg/kg [2, 3]: 106%
response vs control in vivo at 2 mg/kg [2, 4]: 246%
response vs control in vivo at 2 mg/kg [2, 5]: 236%
response vs control in vivo at 2 mg/kg [2, 6]: 126%

CCN1CCN(c2cc(-c3ccc(F)cc3)c3c(n2)CCC(C)(C)C3)CC1 [Example 66]
inhibition in vivo at 1 mg/kg [1]: 95%
response vs control in vivo at 2 mg/kg [2, 3]: 116%
response vs control in vivo at 2 mg/kg [2, 4]: 311%
response vs control in vivo at 2 mg/kg [2, 5]: 308%
response vs control in vivo at 2 mg/kg [2, 6]: 111%

CCN1CCN(c2cc(-c3ccc(F)cc3)c3c(n2)CC(C)(C)CC3C)CC1 (centres unmarked) [Example 68]
response vs control in vivo at 2 mg/kg [2, 4]: 206%
response vs control in vivo at 2 mg/kg [2, 5]: 181%

COCCN1CCN(c2cc(-c3ccc(F)cc3)c3c(n2)CCCCCC3)CC1 [Example 82, 2-[4-(2-Methoxyethyl)-1-piperazinyl]-4-(4-fluorophenyl)-5,6,7,8,9,10-hexahydrocycloocta[b]pyridine dimaleate]
inhibition in vivo at 1 mg/kg [1]: 100%

CC1CN(c2cc(-c3ccc(F)cc3)c3c(n2)CCCCCC3)CC(C)N1 (centres unmarked) [Example 84, 2-(3,5-Dimethyl-1-piperazinyl)-4-(4-fluorophenyl)-5,6,7,8,9,10-hexahydrocycloocta[b]pyridine 1/2 fumarate]
response vs control in vivo at 10 mg/kg [2, 4]: 237%
response vs control in vivo at 10 mg/kg [2, 5]: 216%

Fc1ccc(-c2cc(N3CCNCC3)nc3c2CCCCCC3)cc1 [Example 104, 2-(1-piperazinyl)-4-(4-fluorophenyl)-5,6,7,8,9,10-hexahydrocycloocta[b]pyridine]
response vs control in vivo at 10 mg/kg [2, 3]: 97%
response vs control in vivo at 10 mg/kg [2, 4]: 344%
response vs control in vivo at 10 mg/kg [2, 5]: 247%
response vs control in vivo at 10 mg/kg [2, 6]: 160%

CC1CN(c2cc(-c3ccc(F)cc3)c3c(n2)CCCCCC3)CCN1C (centres unmarked) [Example 116, 2-(3,4-Dimethyl-1-piperazinyl)-4-(4-fluorophenyl)-5,6,7,8,9,10-hexahydrocycloocta[b]pyridine fumarate 1/4 hydrate]
inhibition in vivo at 1 mg/kg [1]: 100%

C[C@@H]1CN(c2cc(-c3ccc(F)cc3)c3c(n2)CCCCCC3)C[C@H](C)N1C [Example 117, 2-(cis-3,5-Dimethyl-4-methyl-1-piperazinyl)-4-(4-fluorophenyl)-5,6,7,8,9,10-hexahydrocycloocta[b]pyridine fumarate]
response vs control in vivo at 10 mg/kg [2, 3]: 100%
response vs control in vivo at 10 mg/kg [2, 4]: 242%
response vs control in vivo at 10 mg/kg [2, 5]: 210%
response vs control in vivo at 10 mg/kg [2, 6]: 133%

CCCCCCN1CCN(c2cc(-c3ccc(F)cc3)c3c(n2)CCCCCC3)CC1 [Example 124]
response vs control in vivo at 10 mg/kg [2, 3]: 107%
response vs control in vivo at 10 mg/kg [2, 4]: 292%
response vs control in vivo at 10 mg/kg [2, 5]: 238%
response vs control in vivo at 10 mg/kg [2, 6]: 102%

CCN1CCN(c2cc(-c3ccc(F)cc3F)c3c(n2)CCCCC3)CC1 [Example 131, 2-(4-ethyl-1-piperazinyl)-4-(2,4-difluorophenyl)-6,7,8,9-tetrahydro-5H-cyclohepta[b]pyridine]
response vs control in vivo at 1 mg/kg [2, 4]: 319%
response vs control in vivo at 1 mg/kg [2, 5]: 224%

CCN1CCN(c2cc(-c3ccc(F)cc3F)c3c(n2)CCC3)CC1 [Example 132, 2-(4-ethyl-1-piperazinyl)-4-(2,4-difluorophenyl)-6,7-dihydro-5H-1-pyrindin]
response vs control in vivo at 10 mg/kg [2, 4]: 333%
response vs control in vivo at 10 mg/kg [2, 5]: 209%

CCN1CCN(c2cc(-c3ccc(F)cc3F)c3c(n2)C2CCC3C2)CC1 (centres unmarked) [Example 135, 2-(4-ethyl-1-piperazinyl)-4-(2,4-difluorophenyl)-5,6,7,8-tetrahydro-5,8-methanoquinoline]
inhibition in vivo at 1 mg/kg [1]: 100%

OCCCN1CCN(c2cc(-c3ccc(F)cc3)c3c(n2)CCCCCC3)CC1 [Example 138, 2-[4-(3-hydroxypropyl)-1-piperazinyl]-4-(4-fluorophenyl)-5,6,7,8,9,10-hexahydrocycloocta[b]pyridine]
response vs control in vivo at 2 mg/kg [2, 4]: 236%
response vs control in vivo at 2 mg/kg [2, 5]: 173%

CC(=O)OCCN1CCN(c2cc(-c3ccc(F)cc3)c3c(n2)CCCCCC3)CC1 [Example 139, 2-[4-(2-acetoxyethyl)-1-piperazinyl]-4-(4-fluorophenyl)-5,6,7,8,9,10-hexahydrocycloocta[b]pyridine]
response vs control in vivo at 10 mg/kg [2, 4]: 267%
response vs control in vivo at 10 mg/kg [2, 5]: 206%
